Among the data in ChEMBL document CHEMBL5727469, “Inhibitors of the renal outer medullary potassium channel” (2019) are IC50 values, retold here.

As usually defined, the pIC50 is the negative decadic logarithm of the IC50, by convention in mol/L.

pIC50: −log10 of the molar value.

The test has as its target T1, ATP-sensitive inward rectifier potassium channel 1 (Homo sapiens, UniProt P48048).
T1 sequence (P48048 whole entry): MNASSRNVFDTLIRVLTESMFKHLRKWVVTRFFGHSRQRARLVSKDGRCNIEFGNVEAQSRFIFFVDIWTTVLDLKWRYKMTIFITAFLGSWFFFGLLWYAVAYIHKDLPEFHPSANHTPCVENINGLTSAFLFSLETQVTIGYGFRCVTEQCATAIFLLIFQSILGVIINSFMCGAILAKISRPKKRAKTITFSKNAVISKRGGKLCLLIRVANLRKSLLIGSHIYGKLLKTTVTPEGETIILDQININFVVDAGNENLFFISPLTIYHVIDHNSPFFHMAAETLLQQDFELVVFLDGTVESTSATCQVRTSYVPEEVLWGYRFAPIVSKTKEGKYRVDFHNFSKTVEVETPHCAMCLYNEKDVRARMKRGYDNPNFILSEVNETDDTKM
Description: Thallium Flux Assay: 1. Seed HEK-hKir1.1 cells (50 μl at 20,000 cells/well) in 384-well PDL coated Microplates2. Allow cells to adhere overnight in humidified 37° C./10% CO2 incubator3. Completely remove cell growth media from microplate and replace with 25 μl loading buffer4. Incubate Microplate at room temperature, protected form light, for 90 min5. Remove loading buffer and replace with 25 μl 1× Assay Buffer±test compound.6. Incubate microplate at room temperature, protected from light, for 30 min7. At FLIPR-Tetra 384: Add stimulant (Thallium/Potassium) solution to microplate and monitor fluorescence. Excitation=400 nm, Emission=460 & 580 nm. Collect data for ˜10 min.Data Calculation—The fluorescence intensity of wells containing 3 μM of a standard control ROMK inhibitor of the present invention is used to define the ROMK-sensitive component of thallium flux. Fluorescence in the presence of test compounds is normalized to control values to provide % fluorescence change. IC50 values represent the concentration of compound that inhibits 50% of the ROMK thallium flux signal.

As for `CC1=C(N2CCOC3(CCN(CC(O)c4ccc(-n5cnnn5)nc4C)CC3)C2)CCC1=O` (stereo not given), the negative-log IC50 (pIC50) was 6.80.
Consider `CC1=C(N2CCOC3(CCN(C[C@H](O)c4ccc5c(c4C)COC5=O)CC3)C2)CCC1=O`, for which the pIC50 was 6.10.
As to `CC1=C(N2CCOC3(CCN(C[C@H](O)c4ccc(-n5cnnn5)nc4)CC3)C2)CCC1=O`, the pIC50 is 6.78.
Turning to `CC1=C(N2CCOC3(CCN(CC(O)c4ccc(-n5cnnn5)cc4C)CC3)C2)CCC1=O` (stereo not given), the pIC50 was 6.55.
Under `CC1=C(N2CCC3(CCN(CC(O)c4ccc(-n5cnnn5)nc4C)CC3)C2=O)CCC1=O` (single isomer, unassigned) stands 6.07.
